{"source": "the supplement of paper PMC10307832", "assay_in_all_cases": "relative viability (nuclei count vs DMSO), 5 days (fraction); higher = more cells survive", "key": {"Zosuquidar + Dasatinib": {"compound": "O[C@@H](COc1cccc2ncccc12)CN1CCN([C@@H]2c3ccccc3[C@@H]3[C@H](c4ccccc42)C3(F)F)CC1 [Zosuquidar] + Cc1nc(Nc2ncc(C(=O)Nc3c(C)cccc3Cl)s2)cc(N2CCN(CCO)CC2)n1 [Dasatinib] (partner 0.075 µM)", "in_short": "(§1)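 Lung cancer cell lines were seeded in 1536-well plates and dosed by pin tool the next day, with either a single drug or a fixed anchor-drug dose combined with five library-drug doses (not always all listed) spaced in √10 steps. Five days later, one step fixed the cells and stained their nuclei (final 0.05% Triton X-100, 1% formaldehyde, 1 ug/ml Hoechst), and nuclei were counted on 4× images. Relative viability is the nuclei count in treated wells divided by the count in vehicle wells, and each value is the median of duplicate plates.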"}, "Kobe2602 + Linsitinib": {"compound": "C1=CC(=CC=C1NC(=S)NNC2=C(C=C(C=C2[N+](=O)[O-])C(F)(F)F)[N+](=O)[O-])F [Kobe2602] + C[C@]1(O)C[C@@H](c2nc(-c3ccc4ccc(-c5ccccc5)nc4c3)c3c(N)nccn32)C1 [Linsitinib] (partner 1 µM)", "in_short": "as §1"}, "Kobe2602 + Bortezomib": {"compound": "C1=CC(=CC=C1NC(=S)NNC2=C(C=C(C=C2[N+](=O)[O-])C(F)(F)F)[N+](=O)[O-])F [Kobe2602] + CC(C)C[C@H](NC(=O)[C@H](Cc1ccccc1)NC(=O)c1cnccn1)B(O)O [Bortezomib] (partner 0.002 µM)", "in_short": "as §1"}, "Kobe2602 + Phenformin": {"compound": "C1=CC(=CC=C1NC(=S)NNC2=C(C=C(C=C2[N+](=O)[O-])C(F)(F)F)[N+](=O)[O-])F [Kobe2602] + N=C(N)NC(=N)NCCc1ccccc1 [Phenformin] (partner 250 µM)", "in_short": "as §1"}}}
{"cell line": "RERF-LC-KJ", "values": [{"measurement": "relative viability", "setting": "Zosuquidar + Dasatinib; first compound 0.01 µM", "result": 0.729}, {"measurement": "relative viability", "setting": "Zosuquidar + Dasatinib; first compound 0.03162 µM", "result": 0.859}, {"measurement": "relative viability", "setting": "Zosuquidar + Dasatinib; first compound 0.1 µM", "result": 0.896}, {"measurement": "relative viability", "setting": "Zosuquidar + Dasatinib; first compound 0.3162 µM", "result": 0.74}, {"measurement": "relative viability", "setting": "Zosuquidar + Dasatinib; first compound 1 µM", "result": 0.782}, {"measurement": "relative viability", "setting": "Kobe2602 + Linsitinib; first compound 0.2 µM", "result": 0.826}, {"measurement": "relative viability", "setting": "Kobe2602 + Linsitinib; first compound 0.6325 µM", "result": 0.868}, {"measurement": "relative viability", "setting": "Kobe2602 + Linsitinib; first compound 2 µM", "result": 0.814}, {"measurement": "relative viability", "setting": "Kobe2602 + Linsitinib; first compound 6.325 µM", "result": 0.829}, {"measurement": "relative viability", "setting": "Kobe2602 + Linsitinib; first compound 20 µM", "result": 0.824}, {"measurement": "relative viability", "setting": "Kobe2602 + Bortezomib; first compound 0.2 µM", "result": 1.11}, {"measurement": "relative viability", "setting": "Kobe2602 + Bortezomib; first compound 0.6325 µM", "result": 1.15}, {"measurement": "relative viability", "setting": "Kobe2602 + Bortezomib; first compound 2 µM", "result": 1.15}, {"measurement": "relative viability", "setting": "Kobe2602 + Bortezomib; first compound 6.325 µM", "result": 1.15}, {"measurement": "relative viability", "setting": "Kobe2602 + Bortezomib; first compound 20 µM", "result": 1.15}, {"measurement": "relative viability", "setting": "Kobe2602 + Phenformin; first compound 0.2 µM", "result": 0.437}, {"measurement": "relative viability", "setting": "Kobe2602 + Phenformin; first compound 0.6325 µM", "result": 0.413}, {"measurement": "relative viability", "setting": "Kobe2602 + Phenformin; first compound 2 µM", "result": 0.395}, {"measurement": "relative viability", "setting": "Kobe2602 + Phenformin; first compound 6.325 µM", "result": 0.413}, {"measurement": "relative viability", "setting": "Kobe2602 + Phenformin; first compound 20 µM", "result": 0.377}]}
{"cell line": "NCI-H1651", "values": [{"measurement": "relative viability", "setting": "Zosuquidar + Dasatinib; first compound 0.01 µM", "result": 0.357}, {"measurement": "relative viability", "setting": "Zosuquidar + Dasatinib; first compound 0.03162 µM", "result": 0.324}, {"measurement": "relative viability", "setting": "Zosuquidar + Dasatinib; first compound 0.1 µM", "result": 0.463}, {"measurement": "relative viability", "setting": "Zosuquidar + Dasatinib; first compound 0.3162 µM", "result": 0.356}, {"measurement": "relative viability", "setting": "Zosuquidar + Dasatinib; first compound 1 µM", "result": 0.381}, {"measurement": "relative viability", "setting": "Kobe2602 + Linsitinib; first compound 0.2 µM", "result": 0.83}, {"measurement": "relative viability", "setting": "Kobe2602 + Linsitinib; first compound 0.6325 µM", "result": 1.14}, {"measurement": "relative viability", "setting": "Kobe2602 + Linsitinib; first compound 2 µM", "result": 1.07}, {"measurement": "relative viability", "setting": "Kobe2602 + Linsitinib; first compound 6.325 µM", "result": 0.976}, {"measurement": "relative viability", "setting": "Kobe2602 + Linsitinib; first compound 20 µM", "result": 0.906}, {"measurement": "relative viability", "setting": "Kobe2602 + Bortezomib; first compound 0.2 µM", "result": 0.924}, {"measurement": "relative viability", "setting": "Kobe2602 + Bortezomib; first compound 0.6325 µM", "result": 0.961}, {"measurement": "relative viability", "setting": "Kobe2602 + Bortezomib; first compound 2 µM", "result": 0.956}, {"measurement": "relative viability", "setting": "Kobe2602 + Bortezomib; first compound 6.325 µM", "result": 0.94}, {"measurement": "relative viability", "setting": "Kobe2602 + Bortezomib; first compound 20 µM", "result": 1.01}, {"measurement": "relative viability", "setting": "Kobe2602 + Phenformin; first compound 0.2 µM", "result": 0.415}, {"measurement": "relative viability", "setting": "Kobe2602 + Phenformin; first compound 0.6325 µM", "result": 0.37}, {"measurement": "relative viability", "setting": "Kobe2602 + Phenformin; first compound 2 µM", "result": 0.356}, {"measurement": "relative viability", "setting": "Kobe2602 + Phenformin; first compound 6.325 µM", "result": 0.333}, {"measurement": "relative viability", "setting": "Kobe2602 + Phenformin; first compound 20 µM", "result": 0.414}]}
{"cell line": "NCI-H1734", "values": [{"measurement": "relative viability", "setting": "Zosuquidar + Dasatinib; first compound 0.01 µM", "result": 0.41}, {"measurement": "relative viability", "setting": "Zosuquidar + Dasatinib; first compound 0.03162 µM", "result": 0.408}, {"measurement": "relative viability", "setting": "Zosuquidar + Dasatinib; first compound 0.1 µM", "result": 0.455}, {"measurement": "relative viability", "setting": "Zosuquidar + Dasatinib; first compound 0.3162 µM", "result": 0.571}, {"measurement": "relative viability", "setting": "Zosuquidar + Dasatinib; first compound 1 µM", "result": 0.531}, {"measurement": "relative viability", "setting": "Kobe2602 + Linsitinib; first compound 0.2 µM", "result": 0.895}, {"measurement": "relative viability", "setting": "Kobe2602 + Linsitinib; first compound 0.6325 µM", "result": 0.899}, {"measurement": "relative viability", "setting": "Kobe2602 + Linsitinib; first compound 2 µM", "result": 0.849}, {"measurement": "relative viability", "setting": "Kobe2602 + Linsitinib; first compound 6.325 µM", "result": 0.964}, {"measurement": "relative viability", "setting": "Kobe2602 + Linsitinib; first compound 20 µM", "result": 0.897}, {"measurement": "relative viability", "setting": "Kobe2602 + Bortezomib; first compound 0.2 µM", "result": 1.06}, {"measurement": "relative viability", "setting": "Kobe2602 + Bortezomib; first compound 0.6325 µM", "result": 0.963}, {"measurement": "relative viability", "setting": "Kobe2602 + Bortezomib; first compound 2 µM", "result": 0.872}, {"measurement": "relative viability", "setting": "Kobe2602 + Bortezomib; first compound 6.325 µM", "result": 1.01}, {"measurement": "relative viability", "setting": "Kobe2602 + Bortezomib; first compound 20 µM", "result": 0.952}, {"measurement": "relative viability", "setting": "Kobe2602 + Phenformin; first compound 0.2 µM", "result": 0.413}, {"measurement": "relative viability", "setting": "Kobe2602 + Phenformin; first compound 0.6325 µM", "result": 0.408}, {"measurement": "relative viability", "setting": "Kobe2602 + Phenformin; first compound 2 µM", "result": 0.422}, {"measurement": "relative viability", "setting": "Kobe2602 + Phenformin; first compound 6.325 µM", "result": 0.347}, {"measurement": "relative viability", "setting": "Kobe2602 + Phenformin; first compound 20 µM", "result": 0.388}]}
{"cell line": "NCI-H520", "values": [{"measurement": "relative viability", "setting": "Zosuquidar + Dasatinib; first compound 0.01 µM", "result": 0.224}, {"measurement": "relative viability", "setting": "Zosuquidar + Dasatinib; first compound 0.03162 µM", "result": 0.156}, {"measurement": "relative viability", "setting": "Zosuquidar + Dasatinib; first compound 0.3162 µM", "result": 0.254}, {"measurement": "relative viability", "setting": "Zosuquidar + Dasatinib; first compound 1 µM", "result": 0.189}, {"measurement": "relative viability", "setting": "Kobe2602 + Linsitinib; first compound 0.2 µM", "result": 0.997}, {"measurement": "relative viability", "setting": "Kobe2602 + Linsitinib; first compound 0.6325 µM", "result": 1.04}, {"measurement": "relative viability", "setting": "Kobe2602 + Linsitinib; first compound 2 µM", "result": 1.02}, {"measurement": "relative viability", "setting": "Kobe2602 + Linsitinib; first compound 6.325 µM", "result": 0.984}, {"measurement": "relative viability", "setting": "Kobe2602 + Linsitinib; first compound 20 µM", "result": 0.968}, {"measurement": "relative viability", "setting": "Kobe2602 + Bortezomib; first compound 0.2 µM", "result": 0.612}, {"measurement": "relative viability", "setting": "Kobe2602 + Bortezomib; first compound 0.6325 µM", "result": 0.713}, {"measurement": "relative viability", "setting": "Kobe2602 + Bortezomib; first compound 2 µM", "result": 0.511}, {"measurement": "relative viability", "setting": "Kobe2602 + Bortezomib; first compound 6.325 µM", "result": 0.593}, {"measurement": "relative viability", "setting": "Kobe2602 + Bortezomib; first compound 20 µM", "result": 0.537}, {"measurement": "relative viability", "setting": "Kobe2602 + Phenformin; first compound 0.2 µM", "result": 0.539}, {"measurement": "relative viability", "setting": "Kobe2602 + Phenformin; first compound 0.6325 µM", "result": 0.582}, {"measurement": "relative viability", "setting": "Kobe2602 + Phenformin; first compound 2 µM", "result": 0.632}, {"measurement": "relative viability", "setting": "Kobe2602 + Phenformin; first compound 6.325 µM", "result": 0.654}, {"measurement": "relative viability", "setting": "Kobe2602 + Phenformin; first compound 20 µM", "result": 0.539}]}
